Test [1] deals with d-U937 cells. Description: LPS-induced TNFα/IL-8 release in d-U937 cells. In kind it is cell-based. The settings on record: Homo sapiens, dU937, LPS-stimulated d-U937 cells.
In test [2] the test system is TNBS-induced colitis in mice. Description: TNBS-induced colitis in mice. In kind it is in vivo. How it is done:
Non-fasted, 10-12 week old, male BDF1 mice are dosed by oral gavage twice daily with either vehicle (5 mL/kg), reference item (Budesonide 2.5 mg/kg) or test compound (1 or 5 mg/kg) one day before (Day −1) stimulation of the inflammatory response by treatment with 2,4,6-trinitrobenzenesuiphonic acid (TNBS) (15 mg/mL in 50% ethanol/50% saline). On Day 0 of the study TNBS (200 μL) is administered intra-colonically via a plastic catheter followed by BID dosing of the vehicle, reference or test compound for 2 or 4 days. During the study animals are weighed every day and stool observations are made and recorded as a score, based on stool consistency. At the time of sacrifice on Day 2 (or Day 4) the large intestine is removed and the length and weight recorded. Sections of the colon are taken for either MPO analysis to determine neutrophil infiltration or for histopathology involving scoring to determine disease severity.

Like-named read-outs stand apart in the source and are kept apart here.

In the case of `COCCOCCOCCOc1cc(Nc2nccc(Oc3ccc(NC(=O)Nc4cc(C(C)(C)C)nn4-c4cccc(CP(C)(C)=O)c4)c4ccccc34)n2)cc(OC)c1` [Example 60, 1-(3-(tert-Butyl)-1-(3-((dimethylphosphoryl)methyl)phenyl)-1H-pyrazol-5-yl)-3-(4-((2-((3-methoxy-5-(2-(2-(2-methoxyethoxy)ethoxy)ethoxy)phenyl)amino)pyrimidin-4-yl)oxy)-naphthalen-1-yl)urea], the concentration for half-maximal inhibition (IC50) in test [1] (IL-8, read-out: IC50 Values for Inhibition of Cytokine Release, dU937 cells IL-8) came out at 0.4 nM. In addition, the IC50 in test [1] (TNFα (REC50 relative to BIRB796 per method), read-out: IC50 Values for Inhibition of Cytokine Release, dU937 cells TNFα) amounted to 0.2 nM. Also, in test [2] (5 mg/kg oral, conducted over 2 days, vehicle 3.6 ± 0.3 (exp. 1), 4.4 ± 0.2 (exp. 2)), the “TNBS Ulcer grade” value is recorded as 3.6 ± 0.4. Moreover, the “TNBS LP inflammation” value in test [2] (5 mg/kg oral, conducted over 2 days, vehicle 3.9 ± 0.3 (exp. 1), 4.5 ± 0.2 (exp. 2)) is 2.8 ± 0.4. In addition, in test [2] (conducted over 2 days), the “activity in in vivo model of colonic inflammation (histopathology analysis)” value was “significant activity”. In test [2] (dosed orally at 5 mg/kg), the “inflammatory cell infiltrate in the reticular and laminar propria zone” value is on record as “marked reduction”; the “ulcer grade and epithelial repair compared to the vehicle control” value was “marked improvements”.

In general, IC50 refers to the concentration that inhibits the measured activity by half.

Values taken from patent US9796742B2, “Kinase inhibitors” (Respivert Limited, priority 2012, dated 2017).
